Assay results as given in ChEMBL document CHEMBL4840320, “Taccachatrones A-G, Highly Oxidized Steroids from the Rhizomes of Tacca chantrierii and Their Cytotoxicity Assessment” (J Nat Prod, 2021).
pIC50: −log10 of the molar value. Active and inactive are the calls of the source. The rule behind the calls is not given here.

Key:
Format in all cases: functional, cell-based
A549 = experiment: Cytotoxicity against human A549 cells assessed as reduction in cell viability measured after 48 hrs by MTT assay; conditions: for pIC50: A549, 48 h
SW480 = experiment: Cytotoxicity against human SW480 cells assessed as reduction in cell viability measured after 48 hrs by MTT assay; conditions: for pIC50: SW480, 48 h
HL-60 = experiment: Cytotoxicity against human HL-60 cells assessed as reduction in cell viability measured after 48 hrs by MTT assay; conditions: for pIC50: HL-60, 48 h
MCF7 = experiment: Cytotoxicity against human MCF7 cells assessed as reduction in cell viability measured after 48 hrs by MTT assay; conditions: for pIC50: MCF7, 48 h

| SMILES | Activity (A549) | Activity (SW480) | Activity (HL-60) | Activity (MCF7) | pIC50 (A549) | pIC50 (SW480) | pIC50 (HL-60) | pIC50 (MCF7) |
| --- | --- | --- | --- | --- | --- | --- | --- | --- |
| CC(=O)O[C@H]1C[C@H]2[C@@H](C(=O)[C@H](O)[C@@]3(O)C[C@@H]4O[C@@H]4[C@H](OC(C)=O)[C@]23C)[C@@H]2[C@H](O)[C@@H]3[C@H]([C@H](C)CC(=O)[C@H]3C)[C@]21C | inactive | inactive | inactive | inactive | – | – | – | – |
| CC(=O)O[C@H]1C[C@H]2[C@@H]([C@@H]3O[C@@H]3[C@@]3(O)C[C@@H]4O[C@@H]4[C@H](OC(C)=O)[C@]23C)[C@@H]2C[C@H]3[C@H](CO)CC(=O)[C@@H](C)[C@@H]3[C@@]12C | inactive | inactive | inactive | inactive | – | – | – | – |
| CC(=O)O[C@H]1C[C@H]2[C@@H](C(=O)[C@H](O)[C@@]3(O)C[C@@H]4O[C@@H]4[C@H](OC(C)=O)[C@]23C)[C@@H]2C(=O)[C@H]3[C@H](C)[C@@H](O)C[C@@H](C)[C@@H]3[C@@]12C | inactive | inactive | inactive | inactive | – | – | – | – |
| CC(=O)O[C@@H]1[C@H]2[C@H]3[C@H]([C@H](O)[C@H](OC(C)=O)[C@]2(C)[C@H]2[C@H](C)[C@H](OC(C)=O)[C@@H]4OC(=O)C(C)(O)[C@]4(C)[C@H]12)[C@]1(C)[C@H](C[C@@H]2O[C@H]2[C@@H]1OC(C)=O)C(=O)[C@@H]3O (stereo partly specified) | – | – | – | – | 5.14 | < 5.00 | < 5.00 | < 5.00 |
| CC(=O)O[C@H]1C[C@H]2[C@H]([C@@H]3[C@@H](O)[C@@H]4[C@H]([C@H](C)C=C5OC(=O)C(C)(O)[C@@]54C)[C@]31C)[C@@H](O)C(=O)[C@H]1C[C@@H]3O[C@H]3[C@H](OC(=O)CC(C)C)[C@@]12C (stereo partly specified) | – | – | – | – | 5.55 | < 5.00 | 5.80 | 5.16 |
| CC(=O)O[C@@H]1[C@H]2[C@@H]3[C@@H](OC(C)=O)C(=O)[C@@]4(O)C[C@@H]5O[C@H]5[C@H](OC(=O)CC(C)C)[C@]4(C)[C@H]3C[C@H](OC(C)=O)[C@]2(C)[C@@H]2[C@@H]1[C@]1(C)C(=C[C@H]2C)OC(=O)C1(C)O (stereo partly specified) | – | – | – | – | 5.08 | < 5.00 | < 5.00 | < 5.00 |
| CC(=O)O[C@H]1C(=O)[C@@]2(C)[C@H]([C@H](OC(=O)c3ccccc3)[C@]3(O)C[C@H](OC(=O)[C@H](O)[C@@H](NC(=O)c4ccccc4)c4ccccc4)C(C)=C1C3(C)C)[C@]1(OC(C)=O)CO[C@@H]1C[C@@H]2O [PACLITAXEL] | – | – | – | – | > 8.10 | > 8.10 | > 8.10 | > 8.10 |
| CC(=O)O[C@H]1[C@H]2[C@H]([C@@H]3[C@H]4OC(C)(O)[C@]5(C)[C@H]4[C@H]([C@H](C)C(=O)[C@H]5O)[C@@]3(C)[C@H]1OC(C)=O)[C@@H](OC(C)=O)C(=O)[C@H]1C[C@@H]3O[C@H]3[C@H](OC(C)=O)[C@]21C (stereo partly specified) | – | – | – | – | 5.12 | < 5.00 | < 5.00 | < 5.00 |
| CC(=O)O[C@H]1[C@H]2[C@H]([C@@H]3[C@@H](O)C4=C(C)C(=O)[C@@H](O)[C@@H](C)[C@@H]4[C@@]3(C)[C@H]1OC(C)=O)[C@@H](O)C(=O)[C@H]1C[C@@H]3O[C@@H]3[C@H](OC(C)=O)[C@]21C | inactive | inactive | inactive | inactive | – | – | – | – |
